Laboratory results taken from article PMC8907714, “Antimicrobial property of Pichia pastoris‐derived natto peptide against foodborne bacteria and its preservative potential to maintain pork quality during refrigerated storage” (Food Science & Nutrition, 2022).

Experiments:
[1] = system: total bacteria, Staphylococcus spp., Escherichia spp., and Pseudomonas spp.; experiment: Microbial growth in pork during refrigerated storage, colony count; details: pork soaked 20 min, natto peptide 30, 60, 90 μg/ml, nisin 50 μg/ml, butyl paraben 100 μg/ml, 4°C, 8‐day storage
Method: Fresh‐pork legs were bought from a local butcher (Binzhou, China) 24 h postmortem. The connective tissue and fat of the pork were removed before cutting into even slices (5 ± 0.1 g). Afterwards, the slices were soaked in 0, 30, 60, and 90 μg/ml of natto peptide for 20 min. Then, the slices were drained and placed in sterilized polyvinyl chloride trays, sealed using a polyethylene film, and stored at 4°C in a refrigerator for 8 days. Meanwhile, 50 μg/ml of nisin and 100 μg/ml of butyl paraben were used as positive controls to analyze the aseptic effects of natto peptide, including microbial growth, TVB‐N, lipid oxidation, pH, drip loss, and sensory quality during storage.
The microbial growth of pork was determined by colony count, as described previously (Meng et al., [2021]). In brief, after the pork sample (5 g) was homogenized with 0.9% sterilized saline buffer (25 ml), 100 μl of the 10× diluent was spread on plate‐count agar, mannitol‐salt agar, violet red bile agar, and centrimide (CN) agar, and incubated at a suitable temperature for 48 h. All experiments were performed three times.

[2] = system: E. coli O157; experiment: Time‐killing curve; type: cell-based, Escherichia coli; details: gentamicin positive control, concentration not given
Method: Time‐killing curves were obtained as described previously to evaluate the bactericidal rates of natto peptide (Dong & Sun, [2021]). Concisely, the natto peptide at final concentrations of 1×, 2×, and 4× MICs was incubated with E. coli O157, which was cultured to midlog phase. Then, the culture samples were harvested at different time intervals for colony counting. PBS buffer and gentamicin were used as negative and positive controls. All the experiments were performed in triplicate.

Compound | bacterial growth in pork compared with control [1] | time until bacteria were completely killed [2] [h]
CCCCOC(=O)c1ccc(O)cc1 [Butyl paraben] | effective inhibition function | –
CNC(C)C1CCC(N)C(OC2C(N)CC(N)C(OC3OCC(C)(O)C(NC)C3O)C2O)O1 (stereo not drawn) [gentamicin] | – | 1.5
Nisin | moderate inhibitory effect | –
